Here are results for twelve compounds from article PMC9299702, “Maytansinol Derivatives: Side Reactions as a Chance for New Tubulin Binders” (Chemistry (Weinheim an Der Bergstrasse, Germany), 2021).

Experiment [1] relates to A549 cells. Kind of experiment: Cytotoxicity (antiproliferation assay) in A549. Type of experiment: cell-based, human.
For the next experiment, the system named is A2780AD cells. Kind of experiment: Cytotoxicity (antiproliferation assay) in A2780AD (pGp overexpressing). It is filed as cell-based, human. The following applies: for IC50: read-out: IC50 A2780AD; for R/S (resistance index): A2780AD versus A2780.
The target of experiment [2] is T1, tubulin (Bos taurus, UniProt Q6B856).
T1 construct: Purified calf brain tubulin and chemicals were obtained as previously described; from tissue; host or cells: calf brain
Kind of experiment: Inhibition of tubulin assembly (turbidity time courses). The following applies: 25 μM tubulin in GAB, 27.5 μM compound, stoichiometric ratio. Type of experiment: biochemical, calf.

Experiment [3] has as its target T2, maytansine site of tubulin (Bos taurus, UniProt Q6B856).
T2 construct: Purified calf brain tubulin and chemicals were obtained as previously described; from tissue; host or cells: calf brain
Kind of experiment: biochemical. It is filed as binding, calf.

Another experiment has as its system A2780 cells. Kind of experiment: Cytotoxicity (antiproliferation assay) in A2780. Type of experiment: cell-based, human.
For experiment [4], the system named is tubulin. Further details: method as in PMID 21043240. To be noted: compared with maytansine; cited from earlier work.
In experiment [5] the test system is A549 cells. Kind of experiment: Effects on cellular microtubules by immunofluorescence microscopy. To be noted: fluorescence microscopy; for concentration at which the microtubule destabilizing effect is observed in interphasic cells: interphase; for concentration at which the microtubule destabilizing effect is observed in mitotic cells: mitosis. It is filed as cell-based, human.
From the text: To do so, we performed fluorescence microscopy using A549 cells.
The effect of these compounds on the microtubule network and mitotic spindle was characterized in A549 tumor cells by fluorescence microscopy. […] Cells were immunostained for A)–I) α‐tubulin or A’)–I’) DNA, and A’’)–I’’) the images obtained were merged (tubulin in green and DNA in magenta). A)–A’’) Interphase cell treated with DMSO; notice the regular microtubule network evenly distributed in the cytoplasm. B)–B’’) Control metaphase cell with a normally distributed bipolar mitotic spindle in which all chromosomes are positioned in the metaphase plate. […] All images are shown at the same scale; scale bar: 10 μm.
In interphase the microtubule network covers the whole cytoplasm, while in dividing cells during metaphase there are regular bipolar spindles that allow the correct positioning and segregation of chromosomes in the subsequent division steps.
Indirect immunofluorescence images were obtained using A549 cells plated at a density of 130,000 cells/ml onto 12mm

Setting [6] is: A549 cell line, read-out: IC50 A549.
The mark [7] stands for this setting: A2780AD cell line, pGp overexpressing.
[8] abbreviates: competition against Fc maytansine.
Setting [9] is: A2780 cell line, read-out: IC50 A2780.
Where [10] appears, read: Homo sapiens, A549 cell line, read-out: IC50 A549.
[11] abbreviates: Homo sapiens, A2780AD cell line, pGp overexpressing.
[12] abbreviates: Homo sapiens, A2780 cell line, read-out: IC50 A2780.
The mark [13] stands for this setting: competition against Fc maytansine, read-out: K d.
Setting [14] is: Homo sapiens, A549, read-out: IC50 A549.
Where [15] appears, read: Homo sapiens, A2780, read-out: IC50 A2780.

Each structure is given as a SMILES string. Like-named read-outs stand apart in the source and are kept apart here.

In general, IC50 refers to the concentration at which inhibition is half-maximal.

T2 sequence (Q6B856 whole entry): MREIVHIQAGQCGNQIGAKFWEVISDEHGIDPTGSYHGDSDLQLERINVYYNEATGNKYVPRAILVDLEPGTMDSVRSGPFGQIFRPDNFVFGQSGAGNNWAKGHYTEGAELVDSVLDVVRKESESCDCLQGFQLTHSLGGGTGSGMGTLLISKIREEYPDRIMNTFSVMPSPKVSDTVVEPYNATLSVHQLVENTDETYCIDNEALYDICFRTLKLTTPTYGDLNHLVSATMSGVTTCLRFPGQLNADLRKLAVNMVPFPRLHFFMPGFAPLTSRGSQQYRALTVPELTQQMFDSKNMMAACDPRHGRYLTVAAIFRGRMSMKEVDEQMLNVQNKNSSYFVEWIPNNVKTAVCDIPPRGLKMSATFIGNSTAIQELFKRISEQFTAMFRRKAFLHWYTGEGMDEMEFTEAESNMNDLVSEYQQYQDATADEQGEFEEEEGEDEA
T2 sequence (P81947 whole entry partner): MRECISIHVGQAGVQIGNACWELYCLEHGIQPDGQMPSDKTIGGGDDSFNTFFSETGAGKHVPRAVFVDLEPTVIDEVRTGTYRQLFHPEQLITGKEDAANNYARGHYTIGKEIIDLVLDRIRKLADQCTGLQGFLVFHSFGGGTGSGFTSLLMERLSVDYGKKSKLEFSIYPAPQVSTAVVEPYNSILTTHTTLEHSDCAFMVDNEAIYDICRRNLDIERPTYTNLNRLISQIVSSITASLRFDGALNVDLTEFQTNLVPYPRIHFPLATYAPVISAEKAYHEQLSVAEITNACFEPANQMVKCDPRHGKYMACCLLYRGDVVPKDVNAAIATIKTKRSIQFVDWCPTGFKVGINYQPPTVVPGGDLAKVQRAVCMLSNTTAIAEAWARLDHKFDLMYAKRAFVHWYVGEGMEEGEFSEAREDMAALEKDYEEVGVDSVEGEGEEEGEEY
T1 sequence (Q6B856 whole entry): as the sequence (Q6B856 whole entry) above
T1 sequence (P81947 whole entry partner): as the sequence (P81947 whole entry partner) above

In the case of `COc1cc2cc(c1Cl)N(C)C(=O)CC(O)C1(C)OC1C(C)C1C=C(C(OC)C=CC=C(C)C2)N(C(=O)c2ccccc2)C(=O)O1` (centres unmarked) [6 a], the IC50 was > 1030 nM with A549 cells [1] (setting [6]), 13500 ± 623 nM in the experiment on A2780AD cells (setting [7]) and 2090 ± 99 nM in the experiment with A2780 cells (setting [9]). Further, the “Inhibition of tubulin assembly” value at tubulin [2] is on record as “strong inhibitors that completely abolished microtubule assembly”. Besides, in experiment [3] (setting [8]), the “Mean K b” value was 6±2×10^5 M^−1.

For `COc1cc2cc(c1Cl)N(C)C(=O)CC(O)C1(C)OC1C(C)C1CC(O)(NC(=O)O1)C(OC)/C=C/C=C(\C)C2` (centres unmarked) [1 b, Maytansinol], the IC50 in the experiment on A549 cells [1] (setting [10]) was found to be 60 ± 3 nM; in the experiment with A2780AD cells (setting [11]), 1460 ± 148 nM; in the experiment on A2780 cells (setting [12]), 23.8 ± 1.65 nM. In addition, the “Inhibition of tubulin assembly” value on tubulin [2] is recorded as “noticeable effect at stoichiometric concentrations”. In experiment [3], the Kd stood at 780 ± 40 nM. The “Mean K b” value in experiment [3] (setting [8]) was 1.30±0.06×10^6 M^−1. Moreover, the “inhibitory activity on tubulin polymerization” value in the experiment on tubulin [4] is “weaker inhibitory activity on tubulin polymerization than maytansine”. For the same compound, the “concentration at which the microtubule destabilizing effect is observed in interphasic cells” value (“concentration … in interphasic cells” below) in the experiment with A549 cells [5] is 100 nM. In the experiment with A549 cells [5], the “concentration at which the microtubule destabilizing effect is observed in mitotic cells” value (“concentration … in mitotic cells” below) was found to be 50 nM.

Regarding `COc1cc2cc(c1Cl)N(C)C(=O)CC(OC(C)=O)C1(C)OC1C(C)C1C=C(NC(=O)O1)C(OC)C=CC=C(C)C2` (centres unmarked) [5 b], the IC50 in the experiment on A549 cells [1] (setting [6]) was 190 ± 40 nM; with A2780AD cells (setting [7]), > 6160 nM; with A2780 cells (setting [9]), 130 ± 20 nM. Moreover, the “Inhibition of tubulin assembly” value at tubulin [2] is “strong inhibitors that completely abolished microtubule assembly”. Further, in experiment [3] (setting [8]), the “Mean K b” value is given as 1.17±0.04×10^6 M^−1. Moreover, in experiment [3] (setting [13]), the Kd was 860 ± 30 nM.

With `COc1cc2cc(c1Cl)N(C)C(=O)C[C@H](OC(=O)[C@H](C)N(C)C(C)=O)[C@]1(C)O[C@H]1[C@H](C)[C@@H]1C[C@@](O)(NC(=O)O1)[C@H](OC)/C=C/C=C(\C)C2` [1 a, Maytansine, reference compound], the IC50 was found to be 0.278 ± 0.04 nM in the experiment on A549 cells [1] (setting [10]), 19.5 ± 1.14 nM with A2780AD cells (setting [11]) and 0.31 ± 0.02 nM in the experiment on A2780 cells (setting [12]). At tubulin [2], the “Inhibition of tubulin assembly” value was “completely abolishes tubulin polymerization”. This compound also gave a Kd in experiment [3] of 14 ± 2 nM. Further, the “Mean K b” value in experiment [3] (setting [8]) is listed as 9.0±1.3×10^7 M^−1. In addition, in the experiment with A549 cells [5], the “concentration … in interphasic cells” value was 5 nM. In addition, in the experiment on A549 cells [5], the “concentration … in mitotic cells” value was 5 nM.

Regarding `COc1cc2cc(c1Cl)N(C)C(=O)CC(O)C1(C)OC1C(C)C1C=C(NC(=O)O1)C(OC)C=CC=C(C)C2` (centres unmarked) [Compound 3], the IC50 is 28 ± 2 nM with A549 cells [1] (setting [14]); > 19700 nM with A2780AD cells (Homo sapiens, A2780AD); 74 ± 4 nM with A2780 cells (setting [15]). For the same compound, at tubulin [2], the “Inhibition of tubulin assembly” value was “mild”. Also, the “Mean K b” value in experiment [3] (setting [8]) is listed as 1.20±0.03×10^6 M^−1. For the same compound, the Kd in experiment [3] (setting [13]) was determined as 830 ± 20 nM.

Consider `COc1cc2cc(c1Cl)N(C)C(=O)CC(O)C1(C)OC1C(C)C=CC(=O)C(OC)C=CC=C(C)C2` (centres unmarked) [Compound 2], for which the IC50 turned out to be 15 ± 2 nM in the experiment on A549 cells [1] (setting [14]); 981 ± 201 nM with A2780AD cells (Homo sapiens, A2780AD); 9.64 ± 0.97 nM in the experiment with A2780 cells (setting [15]). In addition, the “Inhibition of tubulin assembly” value at tubulin [2] was “weak inhibition”. The “Mean K b” value in experiment [3] (setting [8]) is listed as 1.42±0.08×10^6 M^−1. The Kd in experiment [3] (setting [13]) was determined as 720 ± 50 nM.

For `COc1cc2cc(c1Cl)N(C)C(=O)CC(OC(=O)c1ccccc1)C1(C)OC1C(C)C1C=C(NC(=O)O1)C(OC)C=CC=C(C)C2` (centres unmarked) [5 a], the half-maximal inhibitory concentration (IC50) was > 570 nM in the experiment with A549 cells [1] (setting [6]), 2630 ± 187 nM in the experiment with A2780AD cells (setting [7]) and 338 ± 4.65 nM with A2780 cells (setting [9]). Further, on tubulin [2], the “Inhibition of tubulin assembly” value is “strong inhibitors that completely abolished microtubule assembly”. For the same compound, the “Mean K b” value in experiment [3] (setting [8]) is on record as 9.2±0.3×10^5 M^−1. The Kd in experiment [3] (setting [13]) was 1090 ± 40 nM.

As to `C#CCCCCC(=O)OC1CC(=O)N(C)c2cc(cc(OC)c2Cl)CC(C)=CC=CC(OC)C2=CC(OC(=O)N2)C(C)C2OC12C` (centres unmarked) [5 c], the figures for the IC50 in the experiment on A549 cells [1] (setting [6]), with A2780AD cells (setting [7]) and in the experiment with A2780 cells (setting [9]) were 320 ± 40 nM, > 7960 nM and 225 ± 15 nM, respectively. Also, at tubulin [2], the “Inhibition of tubulin assembly” value is “mild”. Further, the “Mean K b” value in experiment [3] (setting [8]) was 5.6±0.4×10^5 M^−1. The Kd in experiment [3] (setting [13]) came to 1800 ± 120 nM.

In the case of `COc1cc2cc(c1Cl)N(C)C(=O)C[C@H](OC(=O)c1ccccc1)[C@]1(C)O[C@H]1[C@H](C)[C@@H]1C[C@@](O)(NC(=O)O1)[C@H](OC)/C=C/C=C(\C)C2` [4 a], the IC50 with A549 cells [1] (setting [6]) worked out at 0.24 ± 0.03 nM; in the experiment on A2780AD cells (setting [7]), 11 ± 1 nM; with A2780 cells (setting [9]), 0.11 ± 0.01 nM. In addition, in the experiment with A2780AD cells, the “R/S (resistance index)” value is recorded as 100. In experiment [3] (setting [8]), the “Mean K b” value is on record as 2.0±0.×10^7 M^−1. In addition, the Kd in experiment [3] (setting [13]) came to 51 ± 3 nM. Further, in the experiment with A549 cells [5], the “concentration … in interphasic cells” value was determined as 10 nM. In addition, the “concentration … in mitotic cells” value with A549 cells [5] is listed as 5 nM.

`COc1cc2cc(c1Cl)N(C)C(=O)CC(OC(C)=O)C1(C)OC1C(C)C1CC(O)(NC(=O)O1)C(OC)C=CC=C(C)C2` (centres unmarked) [4 b]: the IC50 in the experiment on A549 cells [1] (setting [6]) is 1.2 ± 0.3 nM; in the experiment on A2780AD cells (setting [7]), 20 ± 1 nM; in the experiment on A2780 cells (setting [9]) it was 0.25 ± 0.01 nM. Further, the “R/S (resistance index)” value in the experiment on A2780AD cells was determined as 80. The “Mean K b” value in experiment [3] (setting [8]) is reported as 9±1×10^7 M^−1. The Kd in experiment [3] (setting [13]) turned out to be 11 ± 1 nM.

For `C#CCCCCC(=O)OC1CC(=O)N(C)c2cc(cc(OC)c2Cl)CC(C)=CC=CC(OC)C2(O)CC(OC(=O)N2)C(C)C2OC12C` (centres unmarked) [4 c], the IC50 in the experiment on A549 cells [1] (setting [6]) is 0.07 ± 0.008 nM; in the experiment on A2780AD cells (setting [7]), 4.7 ± 0.6 nM; with A2780 cells (setting [9]), 0.033 ± 0.003 nM. Besides, the “R/S (resistance index)” value in the experiment on A2780AD cells turned out to be 142. Also, the “Mean K b” value in experiment [3] (setting [8]) is 5.4±0.5×10^7 M^−1. Moreover, in experiment [3] (setting [13]), the Kd amounted to 20 ± 2 nM.

On to `COc1cc2cc(c1Cl)N(C)C(=O)CC(OC(=O)c1ccccc1)C1(C)OC1C(C)C1C=C(C(OC)C=CC=C(C)C2)N(C(=O)c2ccccc2)C(=O)O1` (centres unmarked) [7 a], for which the IC50 was determined as 47 ± 6 nM in the experiment with A549 cells [1] (setting [6]) and 3500 ± 320 nM in the experiment on A2780AD cells (setting [7]). Also, at tubulin [2], the “Inhibition of tubulin assembly” value is on record as “mild”. Moreover, the “Mean K b” value in experiment [3] (setting [8]) was 5.0±0.5×10^5 M^−1. The Kd in experiment [3] (setting [13]) is 2000 ± 200 nM.
